Experimental findings from patent US8263609B2, “Tetrahydro-β-carbolin-sulfonamide derivatives as 5-Ht6 ligands” (Laboratorios Del Dr. Esteve, S.A., priority 2005, dated 2012) are described below.

The structures appear in SMILES notation.

The target in data set [1] is T1, 5HT6-human recombinant receptor (Homo sapiens, UniProt P50406).
T1 construct: purchased Receptor Biology; host or cells: HEK-293 cell membranes
The data set can be described thus: Binding to Serotonin Receptor 5HT6 ([3H]-LSD radioligand displacement, HEK-293 cell membranes). Particulars: [3H]-LSD 2.7 nM, HEK-293 membranes; for inhibition at 0.1 µM: compound at 10^−7 M, 60 min, 37° C. The method, then:
Binding to Serotonin Receptor 5HT6
Cell membranes of HEK-293 cells expressing the 5HT6-human recombinant receptor were supplied by Receptor Biology. In said membranes the receptor concentration is 2.18 pmol/mg protein and the protein concentration is 9.17 mg/ml. The experimental protocol follows the method of B. L. Roth et al. [B. L. Roth et al., The Journal of Pharmacology and Experimental Therapeutics, 1994, 268, 1403] with the following slight changes. The respective part of the literature description is hereby incorporated by reference and forms part of the disclosure.
The commercial membrane is diluted (1:40 dilution) with the binding buffer: 50 mM Tris-HCl, 10 mM MgCl2, 0.5 mM EDTA (pH 7.4). The radioligand used is [^3H]-LSD at a concentration of 2.7 nM with a final volume of 200 μl. incubation is initiated by adding 100 μl of membrane suspension, (≈22.9 μg membrane protein), and is prolonged for 60 minutes at a temperature of 37° C. The incubation is ended by fast filtration in a Brandel Cell Harvester through fiber glass filters made by Schleicher & Schuell GF 3362 pretreated with a solution of polyethylenimine at 0.5%. The filters are washed three times with three milliliters of buffer Tris-HCl 50 mM pH 7.4. The filters are transferred to flasks and 5 ml of Ecoscint H liquid scintillation cocktail are added to each flask. The flasks are allowed to reach equilibrium for several hours before counting with a Wallac Winspectral 1414 scintillation counter. Non-specific binding is determined in the presence of 100 μM of serotonin. Tests were made in triplicate. The inhibition constants (Ki, nM) were calculated by non-linear regression analysis using the program EBDA/LIGAND described in Munson and Rodbard, Analytical Biochemistry, 1980, 107, 220, which is hereby incorporated by reference and forms part of the disclosure.
A general note: Displacement assays read how much labelled ligand stays bound in the presence of the test substance.

T1 sequence (P50406 whole entry): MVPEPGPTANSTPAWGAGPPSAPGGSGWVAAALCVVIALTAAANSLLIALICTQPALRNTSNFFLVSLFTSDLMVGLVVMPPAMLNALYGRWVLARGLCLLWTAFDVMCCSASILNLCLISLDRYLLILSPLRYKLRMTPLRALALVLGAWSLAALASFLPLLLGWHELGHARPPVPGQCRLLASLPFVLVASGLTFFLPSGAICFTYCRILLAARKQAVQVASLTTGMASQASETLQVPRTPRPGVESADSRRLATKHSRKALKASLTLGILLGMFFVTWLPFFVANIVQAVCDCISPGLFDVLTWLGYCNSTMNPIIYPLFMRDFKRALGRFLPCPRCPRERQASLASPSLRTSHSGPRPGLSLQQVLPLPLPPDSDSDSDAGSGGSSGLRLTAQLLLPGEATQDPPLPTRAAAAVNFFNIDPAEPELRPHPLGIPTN

For orientation: inhibition means how much of the control response was suppressed. By melting point is commonly meant the temperature of the solid-liquid transition. The compound `CN1CCc2c([nH]c3c(NS(=O)(=O)c4ccc5ccccc5c4)cccc23)C1` [Example 38, Naphthalene-2-sulfonic acid (2-methyl-2,3,4,9-tetrahydro-1H-β-carbolin-8-yl)-amide] yielded a melting point of 240 to 242 °C. Further, in data set [1], the inhibition at 0.1 µM was determined as 73.5%.

Broadly, the Ki is a measure of affinity in units of concentration, obtained from inhibition or displacement. For `CN1CCc2c([nH]c3c(NS(=O)(=O)c4csc5ccccc45)cccc23)C1` [Example 45, Benzo[b]thiophene-3-sulfonic acid (2-methyl-2,3,4,9-tetrahydro-1H-β-carbolin-8-yl)-amide], the melting point fell in the range of 225 to 226 °C. Further, the Ki in data set [1] (non-linear regression EBDA/LIGAND) worked out at 29.7 nM. Besides, the inhibition at 0.1 µM in data set [1] was found to be 87.1%.
